Assay results taken from patent publication US9328099B2, “Cyanomethylpyrazole carboxamides as janus kinase inhibitors” (Merck Sharp & Dohme Corp., priority 2011, dated 2016).
pIC50: −log10 of the molar value.

biological target: JAK1 (Homo sapiens (Human), UniProt P23458); experiment: Jak Biochemical HTRF Assay, JAK1; conditions: HTRF biochemical assay, GST-tagged catalytic domain; top concentration tested […]; read-out: JAK1 IC50
Source text: Jak Biochemical HTRF Assay Protocol
Subsequent reagent additions employed an Agilent Bravo.

JAK1, sequence (P23458 875-1153): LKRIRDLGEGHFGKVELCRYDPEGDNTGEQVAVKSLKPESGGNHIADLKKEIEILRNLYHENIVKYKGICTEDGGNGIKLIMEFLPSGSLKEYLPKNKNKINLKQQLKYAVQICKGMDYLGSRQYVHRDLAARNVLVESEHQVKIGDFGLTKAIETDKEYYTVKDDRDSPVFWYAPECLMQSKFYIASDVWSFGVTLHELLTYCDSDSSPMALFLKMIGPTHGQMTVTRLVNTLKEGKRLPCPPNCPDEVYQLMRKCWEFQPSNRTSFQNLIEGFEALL

SMILES	pIC50
N#CCC1(n2cc(C(N)=O)c(Nc3ccccc3)n2)CCN(S(=O)(=O)c2ccc(C(F)(F)F)cc2)CC1 [Example 37-13, 1-[4-(cyanomethyl)-1-{[4-(trifluoromethyl)phenyl]sulfonyl}piperidin-4-yl]-3-(phenylamino)-1H-pyrazole-4-carboxamide]	8.52
N#CCC1(n2cc(C(N)=O)c(Nc3ccc(F)cc3)n2)CCN(c2ccc(F)nc2)CC1 [Example 3-22, 1-[4-(cyanomethyl)-1-(6-fluoropyridin-3-yl)piperidin-4-yl]-3-[(4-fluorophenyl)amino]-1H-pyrazole-4-carboxamide]	9.40
N#CCC1(n2cc(C(N)=O)c(Nc3ccc(C4CC4)nc3)n2)CCN(C(=O)OCC(F)F)CC1 [Example 9-40, 2,2-difluoroethyl 4-{4-carbamoyl-3-[(6-cyclopropylpyridin-3-yl)amino]-1H-pyrazol-1-yl}-4-(cyanomethyl)piperidine-1-carboxylate]	9.15
CC(C)(C)OC(=O)N1CCC(CC#N)(n2cc(C(N)=O)c(Nc3ccc(S(=O)(=O)C(F)(F)F)cc3)n2)CC1 [Example 9-15, tert-butyl 4-[4-carbamoyl-3-({4-[(trifluoromethyl)sulfonyl]phenyl}amino)-1H-pyrazol-1-yl]-4-(cyanomethyl)piperidine-1-carboxylate]	8.70
N#CCC1(n2cc(C(N)=O)c(Nc3ccnc(F)c3)n2)CCC(Nc2ccccn2)CC1 (stereo not drawn) [Example 40-4, Cis or trans 1-[1-(cyanomethyl)-4-(pyridin-2-ylamino)cyclohexyl]-3-[(2-fluoropyridin-4-yl)amino]-1H-pyrazole-4-carboxamide]	6.99
N#CCC1(n2cc(C(N)=O)c(Nc3ccc(F)cc3)n2)CCN(c2cccc(F)c2)CC1 [Example 3-27, 1-[4-(cyanomethyl)-1-(3-fluorophenyl)piperidin-4-yl]-3-[(4-fluorophenyl)amino]-1H-pyrazole-4-carboxamide]	9.00
CC(C)(C)COC(=O)N1CC(CC#N)(n2cc(C(N)=O)c(Nc3ccccc3)n2)C1 [Example 30-56, 2,2-dimethylpropyl 3-[4-carbamoyl-3-(phenylamino)-1H-pyrazol-1-yl]-3-(cyanomethyl)azetidine-1-carboxylate]	7.74
N#CCC1(n2cc(C(N)=O)c(Nc3ccccc3)n2)CN(C(=O)c2ccccn2)C1 [Example 34-38, 1-[3-(cyanomethyl)-1-(pyridin-2-ylcarbonyl)azetidin-3-yl]-3-(phenylamino)-1H-pyrazole-4-carboxamide]	7.23

Now from value to molecule:

pIC50	SMILES
9.40	N#CCC1(n2cc(C(N)=O)c(Nc3ccnc(F)c3)n2)CCN(C(=O)OC2CCOC2)CC1 (single isomer, unassigned) [Example 49-2, (3S or 3R)-tetrahydrofuran-3-yl 4-{4-carbamoyl-3-[(2-fluoropyridin-4-yl)amino]-1H-pyrazol-1-yl}-4-(cyanomethyl)piperidine-1-carboxylate]
8.40	N#CCC1(n2cc(C(N)=O)c(Nc3ccnc(F)c3)n2)CCC(Nc2ccccn2)CC1 (stereo not drawn) [Example 40-22, Cis or trans 1-[1-(cyanomethyl)-4-(pyridin-2-ylamino)cyclohexyl]-3-[(2-fluoropyridin-4-yl)amino]-1H-pyrazole-4-carboxamide]
10.00	N#CCC1(n2cc(C(N)=O)c(Nc3ccc(F)cc3)n2)CCC(Nc2cc(F)ccc2F)CC1 (stereo not drawn) [Example 40-50, Cis and trans 1-{1-(cyanomethyl)-4-[(2,5-difluorophenyl)amino]cyclohexyl}-3-[(4-fluorophenyl)amino]-1H-pyrazole-4-carboxamide]
9.05	CC(F)(F)C(=O)N1CC[C@](CC#N)(n2cc(C(N)=O)c(Nc3ccc(F)nc3)n2)[C@H](F)C1 (single isomer, unassigned) [Example 43-3, 1-((3R,4R or 3S,4S)-4-(cyanomethyl)-1-(2,2-difluoropropanoyl)-3-fluoropiperidin-4-yl)-3-((6-fluoropyridin-3-yl)amino)-1H-pyrazole-4-carboxamide]
